Literature values in patent publication US20130177646A1, “Solid Nicotine-Comprising Dosage Form with Reduced Organoleptic Disturbance” (priority 2012, published 2013).

Details: smoking a cigarette

Q: Which “time for nicotine to reach the brain after inhalation” value does the source give for `CN1CCCC1c1cccnc1` (stereo not shown) [nicotine] here?
A: Its value is “around ten”.
